Measurements: ChEMBL document CHEMBL4840323, “Discovery of an Orally Bioavailable Small-Molecule Inhibitor for the β-Catenin/B-Cell Lymphoma 9 Protein-Protein Interaction” (J Med Chem, 2021)

tested on: HCT-116; assay: cells; conditions: Homo sapiens, HCT-116, 72 h
Description: Antiproliferative activity against human HCT-116 cells assessed as cell growth inhibition measured after 72 hrs by MTS assay

| IC50 | SMILES |
| --- | --- |
| 38 µM | O=C1[C@H](Cc2ccc(O)cc2)N2C(=O)CCN(C(=O)NCc3ccccc3)[C@H]2CN1Cc1cccc2ccccc12 |
| > 100 µM | Cc1cc(-c2ncc(CC(=O)Nc3ccc(-c4cnccn4)cn3)cc2C)ccn1 [WNT-974] |

biological target: T1, beta-catenin-B-cell lymphoma 9 protein complex (Homo sapiens, UniProt P35222); assay: Inhibition of N-terminal 6-His-tagged beta-catenin (1 to 781 residues) (unknown origin) expressed in Escherichia coli BL21 (DE3)-N-terminal biotinylated human BCL9 (350 to 375 residues) protein-protein interaction incubated for 1 hr by Alphascreen assay; conditions: not given
T1 sequence (P35222 whole entry): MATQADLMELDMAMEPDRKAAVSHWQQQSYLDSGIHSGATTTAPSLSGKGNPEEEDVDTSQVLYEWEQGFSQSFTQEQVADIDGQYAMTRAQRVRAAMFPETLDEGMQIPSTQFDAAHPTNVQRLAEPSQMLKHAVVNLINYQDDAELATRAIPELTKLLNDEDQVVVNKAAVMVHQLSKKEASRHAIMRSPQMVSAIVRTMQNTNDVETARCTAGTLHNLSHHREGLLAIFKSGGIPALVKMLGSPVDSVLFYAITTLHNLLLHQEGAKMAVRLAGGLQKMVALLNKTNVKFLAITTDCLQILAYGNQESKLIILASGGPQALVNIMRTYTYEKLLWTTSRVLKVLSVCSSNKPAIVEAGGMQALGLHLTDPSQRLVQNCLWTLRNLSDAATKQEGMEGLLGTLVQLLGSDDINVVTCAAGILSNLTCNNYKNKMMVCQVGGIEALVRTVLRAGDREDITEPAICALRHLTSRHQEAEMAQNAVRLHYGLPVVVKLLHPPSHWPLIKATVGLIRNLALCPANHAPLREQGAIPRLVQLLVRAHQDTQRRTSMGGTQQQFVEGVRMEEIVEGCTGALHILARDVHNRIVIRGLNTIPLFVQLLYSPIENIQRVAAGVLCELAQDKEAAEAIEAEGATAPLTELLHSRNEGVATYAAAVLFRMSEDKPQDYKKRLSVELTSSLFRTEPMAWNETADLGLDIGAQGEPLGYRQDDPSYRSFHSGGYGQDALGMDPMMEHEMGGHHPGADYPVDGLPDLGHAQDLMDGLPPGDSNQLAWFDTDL
T1 sequence (O00512 whole entry): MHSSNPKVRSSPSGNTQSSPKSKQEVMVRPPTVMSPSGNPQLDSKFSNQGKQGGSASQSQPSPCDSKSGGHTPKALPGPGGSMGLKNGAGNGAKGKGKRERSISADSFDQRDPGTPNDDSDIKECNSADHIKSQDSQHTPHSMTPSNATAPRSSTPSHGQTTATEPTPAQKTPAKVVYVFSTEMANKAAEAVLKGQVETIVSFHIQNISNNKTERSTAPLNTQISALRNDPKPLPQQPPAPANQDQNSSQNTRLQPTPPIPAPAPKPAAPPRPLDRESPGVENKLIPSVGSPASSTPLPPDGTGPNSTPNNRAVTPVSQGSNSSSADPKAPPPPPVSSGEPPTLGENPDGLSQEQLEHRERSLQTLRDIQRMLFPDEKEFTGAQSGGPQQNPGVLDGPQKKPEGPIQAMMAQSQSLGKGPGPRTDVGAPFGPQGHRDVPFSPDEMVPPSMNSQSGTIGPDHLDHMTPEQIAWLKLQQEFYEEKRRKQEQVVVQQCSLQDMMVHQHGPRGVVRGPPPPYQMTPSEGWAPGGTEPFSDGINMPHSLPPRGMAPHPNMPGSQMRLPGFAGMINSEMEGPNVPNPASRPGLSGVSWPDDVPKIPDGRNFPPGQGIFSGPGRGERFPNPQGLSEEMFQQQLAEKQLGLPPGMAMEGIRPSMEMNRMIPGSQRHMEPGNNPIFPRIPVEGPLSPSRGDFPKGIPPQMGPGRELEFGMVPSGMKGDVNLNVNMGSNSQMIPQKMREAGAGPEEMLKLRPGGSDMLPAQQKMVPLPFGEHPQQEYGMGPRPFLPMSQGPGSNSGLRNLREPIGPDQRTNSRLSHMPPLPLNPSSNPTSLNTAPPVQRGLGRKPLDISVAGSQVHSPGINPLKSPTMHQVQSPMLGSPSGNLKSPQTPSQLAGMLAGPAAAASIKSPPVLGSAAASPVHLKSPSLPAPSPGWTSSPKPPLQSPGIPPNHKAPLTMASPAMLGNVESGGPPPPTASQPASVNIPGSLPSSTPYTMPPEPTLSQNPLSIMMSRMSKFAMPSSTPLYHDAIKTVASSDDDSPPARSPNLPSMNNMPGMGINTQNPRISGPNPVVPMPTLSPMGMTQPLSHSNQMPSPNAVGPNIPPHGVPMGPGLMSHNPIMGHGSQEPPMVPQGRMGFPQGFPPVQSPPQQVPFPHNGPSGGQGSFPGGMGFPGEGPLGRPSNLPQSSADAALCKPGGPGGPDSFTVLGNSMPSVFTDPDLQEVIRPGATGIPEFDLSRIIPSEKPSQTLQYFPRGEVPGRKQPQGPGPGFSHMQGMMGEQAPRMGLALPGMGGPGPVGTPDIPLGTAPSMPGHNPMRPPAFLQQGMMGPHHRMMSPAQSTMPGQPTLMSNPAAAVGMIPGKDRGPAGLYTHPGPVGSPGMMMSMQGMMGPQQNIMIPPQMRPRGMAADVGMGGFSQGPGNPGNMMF

| Ki | SMILES |
| --- | --- |
| 5 µM | CC(C)(Oc1cccc(N2CCC[C@@H](C(=O)N(Cc3ccc(-c4ccsc4)cc3)C3CC3)C2)c1)C(=O)N1CCNCC1 |
| 8 µM | CC(C)(Oc1cccc(N2CCC[C@@H](C(=O)N(Cc3ccc(-c4ccn[nH]4)cc3)C3CC3)C2)c1)C(=O)N1CCNCC1 |
| 54 µM | CC(C)(Oc1cccc(N2CCC[C@@H](C(=O)N(Cc3ccc(-c4ccccn4)cc3)C3CC3)C2)c1)C(=O)N1CCNCC1 |
| 2.7 µM | CC(C)c1ccc(CN(C(=O)[C@@H]2CCCN(c3cccc(OC(C)(C)C(=O)N4CCNCC4)c3)C2)C2CC2)cc1 |
| 5.8 µM | CC(C)c1ccc(CNC(=O)[C@@H]2CCCN(c3cccc(OC(C)(C)C(=O)N4CCNCC4)c3)C2)cc1 |
| 11 µM | CCN(Cc1ccc(C(C)C)cc1)C(=O)[C@@H]1CCCN(c2cccc(OC(C)(C)C(=O)N3CCNCC3)c2)C1 |
| 66 µM | CC(C)(Oc1cccc(N2CCC[C@@H](C(=O)N(Cc3ccc(-c4cccnc4)cc3)C3CC3)C2)c1)C(=O)N1CCNCC1 |
| 14 µM | CC(C)c1ccc(CN(C)C(=O)[C@@H]2CCCN(c3cccc(OC(C)(C)C(=O)N4CCNCC4)c3)C2)cc1 |
| 68 µM | Cn1cc(-c2ccc(CN(C(=O)[C@@H]3CCCN(c4cccc(OC(C)(C)C(=O)N5CCNCC5)c4)C3)C3CC3)cc2)cn1 |

tested on: SW480; assay: cells; conditions: Homo sapiens, SW480, 72 h
Description: Antiproliferative activity against human SW480 cells assessed as cell growth inhibition measured after 72 hrs by MTS assay

| IC50 | SMILES |
| --- | --- |
| 6.1 µM | O=C1[C@H](Cc2ccc(O)cc2)N2C(=O)CCN(C(=O)NCc3ccccc3)[C@H]2CN1Cc1cccc2ccccc12 |
| > 100 µM | Cc1cc(-c2ncc(CC(=O)Nc3ccc(-c4cnccn4)cn3)cc2C)ccn1 [WNT-974] |

tested on: MCF-10A; assay: cells; conditions: Homo sapiens, 72 h
Description: Cytotoxicity against human MCF-10A cells assessed as cell growth inhibition measured after 72 hrs by MTS assay

| SMILES | IC50 |
| --- | --- |
| O=C1[C@H](Cc2ccc(O)cc2)N2C(=O)CCN(C(=O)NCc3ccccc3)[C@H]2CN1Cc1cccc2ccccc12 | 21 µM |
| Cc1cc(-c2ncc(CC(=O)Nc3ccc(-c4cnccn4)cn3)cc2C)ccn1 [WNT-974] | > 100 µM |

tested on: MDA-MB-231; assay: cells; conditions: Homo sapiens, MDA-MB-231, 72 h
Description: Antiproliferative activity against human MDA-MB-231 cells assessed as cell growth inhibition measured after 72 hrs by MTS assay

| IC50 | SMILES |
| --- | --- |
| 7.2 µM | O=C1[C@H](Cc2ccc(O)cc2)N2C(=O)CCN(C(=O)NCc3ccccc3)[C@H]2CN1Cc1cccc2ccccc12 |
| > 100 µM | Cc1cc(-c2ncc(CC(=O)Nc3ccc(-c4cnccn4)cn3)cc2C)ccn1 [WNT-974] |

biological target: T1, beta-catenin-B-cell lymphoma 9 protein complex; assay: Inhibition of C-terminal 6-His-tagged beta-catenin (1 to 781 residues) (unknown origin) expressed in Escherichia coli BL21 (DE3)-N-terminal biotinylated human BCL9 (350 to 375 residues) protein-protein interaction incubated for 1 hr by Alphascreen assay; conditions: not given

| IC50 | SMILES |
| --- | --- |
| 5.5 µM | CC(C)(Oc1cccc(N2CCC[C@@H](C(=O)N(Cc3ccc(-c4ccsc4)cc3)C3CC3)C2)c1)C(=O)N1CCNCC1 |
| 8.9 µM | CC(C)(Oc1cccc(N2CCC[C@@H](C(=O)N(Cc3ccc(-c4ccn[nH]4)cc3)C3CC3)C2)c1)C(=O)N1CCNCC1 |
| 59 µM | CC(C)(Oc1cccc(N2CCC[C@@H](C(=O)N(Cc3ccc(-c4ccccn4)cc3)C3CC3)C2)c1)C(=O)N1CCNCC1 |
| 3 µM | CC(C)c1ccc(CN(C(=O)[C@@H]2CCCN(c3cccc(OC(C)(C)C(=O)N4CCNCC4)c3)C2)C2CC2)cc1 |
| 6.4 µM | CC(C)c1ccc(CNC(=O)[C@@H]2CCCN(c3cccc(OC(C)(C)C(=O)N4CCNCC4)c3)C2)cc1 |
| 12 µM | CCN(Cc1ccc(C(C)C)cc1)C(=O)[C@@H]1CCCN(c2cccc(OC(C)(C)C(=O)N3CCNCC3)c2)C1 |
| 73 µM | CC(C)(Oc1cccc(N2CCC[C@@H](C(=O)N(Cc3ccc(-c4cccnc4)cc3)C3CC3)C2)c1)C(=O)N1CCNCC1 |
| 15 µM | CC(C)c1ccc(CN(C)C(=O)[C@@H]2CCCN(c3cccc(OC(C)(C)C(=O)N4CCNCC4)c3)C2)cc1 |
| 76 µM | Cn1cc(-c2ccc(CN(C(=O)[C@@H]3CCCN(c4cccc(OC(C)(C)C(=O)N5CCNCC5)c4)C3)C3CC3)cc2)cn1 |

tested on: MDA-MB-468; assay: cells; conditions: Homo sapiens, MDA-MB-468, 72 h
Description: Antiproliferative activity against human MDA-MB-468 cells assessed as cell growth inhibition measured after 72 hrs by MTS assay

| IC50 | SMILES |
| --- | --- |
| 31 µM | O=C1[C@H](Cc2ccc(O)cc2)N2C(=O)CCN(C(=O)NCc3ccccc3)[C@H]2CN1Cc1cccc2ccccc12 |
| > 100 µM | Cc1cc(-c2ncc(CC(=O)Nc3ccc(-c4cnccn4)cn3)cc2C)ccn1 [WNT-974] |
